Measurements from patent publication US8258257B2 (The Regents of the University of California, priority 2008, dated 2012).
Where no end group is shown, it is not given here.

Key:
[1] = biological target: Cldn-4 deletion mutant proteins fused to GST (Mus musculus, UniProt O35054); assay type: binding
[2] = tested on: Cldn-4 deletion mutant proteins fused to GST; assay type: binding, Mouse

SLDAGQYVLVMKANSSYSGNYPYSILFQKF [Cpe30]
binding to GST-Ecl2 without any TM domain [1]: detectable binding activity, albeit at much lower affinity | binding to TM3.Ecl2.TM4 [1]: consistent binding | sensorgram behaviour with full length Cldn-4 fusion [1]: slight decrease in the late stages of association | binding to GST cldn-4 fusion proteins [2]: high affinity specific binding
